Series [1] has as its system barnyardgrass (Echinochloa crus-galli). Description: Test B flooded paddy test. The class given is in vivo. The following applies: Echinochloa crus-galli, 250 g ai/ha, Flood. An outline of the steps: (§1)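 Flooding to 3 cm over soil accompanied treatment, which consisted of adding compound to the standing water around 2-leaf plants; depth was then maintained. Visual assessment versus controls followed at 13 to 15 d (scale 0–100, 0 meaning no effect).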

The subject of series [2] is ducksalad (Heteranthera limosa). Description: Test B flooded paddy test. The class given is in vivo. The following applies: Heteranthera limosa, 250 g ai/ha, Flood. An outline of the steps:
as §1

For series [3], the system named is sedge, umbrella (small-flower umbrella sedge, Cyperus difformis). Description: Test B flooded paddy test. In kind it is in vivo. The following applies: Cyperus difformis, 250 g ai/ha, Flood. The essentials:
as §1

For series [4], the system named is rice (Oryra sativa). In words: Test B flooded paddy test. The class given is in vivo. The following applies: Oryza sativa, 250 g ai/ha, Flood. An outline of the steps:
as §1

The test system of series [5] is barnyardgrass (Echinochloa crus-galli). In words: Test A preemergence. In kind it is in vivo. The following applies: Echinochloa crus-galli, pre-emergence, 240 h; for pest or weed control at 125 g/ha: 125 g ai/ha; for pest or weed control at 500 g/ha: 500 g ai/ha. The essentials:
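Seeds sprayed preemergence with a directed soil spray, or plants at 2 to 10 cm height and one- to two-leaf stage sprayed postemergence, with test chemicals in a non-phytotoxic solvent mixture containing surfactant, in loam soil–sand blend. Injury rated visually against untreated controls after about 10 d in greenhouse, 0 (no effect) to 100 (complete control).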

Where [6] appears, read: 0 to 100 scale where 0 is no effect and 100 is complete control, read-out: Barnyardgrass plant response rating.
Setting [7] is: 0 to 100 scale where 0 is no effect and 100 is complete control, read-out: Ducksalad plant response rating.
Where [8] appears, read: 0 to 100 scale where 0 is no effect and 100 is complete control, read-out: Sedge, Umbrella plant response rating.
The mark [9] stands for this setting: 0 to 100 scale where 0 is no effect and 100 is complete control, read-out: Rice plant response rating.
The mark [10] stands for this setting: preemergence, visual injury rating, 0 to 100 scale where 0 is no effect and 100 is complete control, approximately 10 d, read-out: Barnyardgrass plant response rating.
[11] abbreviates: preemergence, 0 to 100 scale where 0 is no effect and 100 is complete control, read-out: Barnyardgrass plant response rating.
Where [12] appears, read: scale of 0 to 100 where 0 is no effect and 100 is complete control, read-out: Barnyardgrass plant response rating.
[13] abbreviates: scale of 0 to 100 where 0 is no effect and 100 is complete control, read-out: Ducksalad plant response rating.
The mark [14] stands for this setting: scale of 0 to 100 where 0 is no effect and 100 is complete control, read-out: Sedge, Umbrella plant response rating.
The mark [15] stands for this setting: scale of 0 to 100 where 0 is no effect and 100 is complete control, read-out: Rice plant response rating.
The mark [16] stands for this setting: preemergence, visual rating after approx. 10 d, 0 to 100 scale where 0 is no effect and 100 is complete control, read-out: Plant response rating, Barnyardgrass.
[17] abbreviates: 360 h, visually evaluated after 13 to 15 d, read-out: Plant response rating, Barnyardgrass (0 to 100 scale where 0 is no effect and 100 is complete control).
Where [18] appears, read: 360 h, visually evaluated after 13 to 15 d, read-out: Plant response rating, Ducksalad (0 to 100 scale where 0 is no effect and 100 is complete control).
Where [19] appears, read: 360 h, visually evaluated after 13 to 15 d, read-out: Plant response rating, Sedge, Umbrella (0 to 100 scale where 0 is no effect and 100 is complete control).
Setting [20] is: 360 h, visually evaluated after 13 to 15 d, read-out: Plant response rating, Rice (0 to 100 scale where 0 is no effect and 100 is complete control).
Where [21] appears, read: preemergence, 0 to 100 scale (0 no effect, 100 complete control), read-out: Plant response rating, Barnyardgrass.
Setting [22] is: Preemergence, 0 to 100 scale (0 no effect, 100 complete control), read-out: Plant response rating, Barnyardgrass.
Where [23] appears, read: preemergence, 0 to 100 scale, 0 = no effect, 100 = complete control, read-out: Plant response rating, Barnyardgrass.

Read-outs that look alike come from different tables or passages of the source.

Broadly, the melting point is the temperature of the solid-liquid transition.

Regarding `CN1C[C@H](c2ccc(C(F)(F)F)cc2)[C@@H](C(=O)Nc2cccc(Cl)c2F)C1=O` [Compound 1238], the melting point fell in the range of 138 to 141 °C. In series [1] (setting [6]), the pest or weed control at 250 g/ha was determined as 0%. In addition, in series [2] (setting [7]), the pest or weed control at 250 g/ha is 0%. In addition, the pest or weed control at 250 g/ha in series [3] (setting [8]) was 0%. Also, the pest or weed control at 250 g/ha in series [4] (setting [9]) came out at 0%. Also, in series [5] (setting [10]), the pest or weed control at 125 g/ha came out at 80%. For the same compound, the pest or weed control at 500 g/ha in series [5] (setting [11]) turned out to be 90%.

`CN1CC(c2cccc(OCC=C(Cl)Cl)c2)C(C(=O)Nc2cccc(F)c2F)C1=O` (stereo not drawn) [Compound 1303] came in with a melting point of 124 to 127 °C. Moreover, the pest or weed control at 250 g/ha in series [1] (setting [6]) was 0%. In series [2] (setting [7]), the pest or weed control at 250 g/ha was determined as 0%. Moreover, the pest or weed control at 250 g/ha in series [3] (setting [8]) turned out to be 0%. In addition, the pest or weed control at 250 g/ha in series [4] (setting [9]) amounted to 0%. In addition, in series [5] (setting [10]), the pest or weed control at 125 g/ha was found to be 0%. Moreover, in series [5] (setting [11]), the pest or weed control at 500 g/ha was 30%.

The compound `C/C=C/C1CNC(=O)C1C(=O)Nc1cccc(F)c1F` (stereo not drawn) [Compound 793] displayed a melting point of 151 to 155 °C. The pest or weed control at 250 g/ha in series [1] (setting [12]) was 0%. In addition, the pest or weed control at 250 g/ha in series [2] (setting [13]) was 25%. The pest or weed control at 250 g/ha in series [3] (setting [14]) turned out to be 25%. In addition, in series [4] (setting [15]), the pest or weed control at 250 g/ha worked out at 0%. In addition, the pest or weed control at 125 g/ha in series [5] (setting [16]) was 0%. For the same compound, the pest or weed control at 31 g/ha in series [5] (Preemergence, 31 g ai/ha, 0 to 100 scale (0 no effect, 100 complete control), read-out: Plant response rating, Barnyardgrass) worked out at 0%.

For `O=C1NC[C@H](c2cnc(C(F)(F)F)nc2)[C@H]1C(=O)Nc1cccc(F)c1F` [Compound 1382], the melting point was in the range of 170 to 173 °C. In series [1] (setting [17]), the pest or weed control at 250 g/ha stood at 30%. Besides, the pest or weed control at 250 g/ha in series [2] (setting [18]) came out at 90%. Moreover, the pest or weed control at 250 g/ha in series [3] (setting [19]) turned out to be 20%. Also, the pest or weed control at 250 g/ha in series [4] (setting [20]) was 0%. In addition, the pest or weed control at 500 g/ha in series [5] (setting [21]) came out at 70%. Moreover, the pest or weed control at 125 g/ha in series [5] (setting [22]) turned out to be 0%.

In the case of `Cc1ccc([C@H]2CN(C)C(=O)[C@@H]2C(=O)Nc2ccc(F)c(F)c2F)cc1` [Compound 1378], the melting point fell in the range of 101.6 to 102.3 °C. Besides, in series [1] (setting [17]), the pest or weed control at 250 g/ha was 85%. Further, the pest or weed control at 250 g/ha in series [2] (setting [18]) was found to be 95%. The pest or weed control at 250 g/ha in series [3] (setting [19]) amounted to 0%. Moreover, the pest or weed control at 250 g/ha in series [4] (setting [20]) was determined as 45%. Further, in series [5] (setting [21]), the pest or weed control at 500 g/ha worked out at 90%. Moreover, the pest or weed control at 125 g/ha in series [5] (setting [22]) amounted to 90%.

`CN1C[C@H](c2ccc(C(F)(F)F)cc2)[C@@H](C(=O)Nc2ccccc2C(F)(F)F)C1=O` [Compound 726] returned a melting point of 108 to 111 °C. In addition, the pest or weed control at 250 g/ha in series [1] (setting [12]) is 55%. Also, the pest or weed control at 250 g/ha in series [2] (setting [13]) turned out to be 100%. Moreover, in series [3] (setting [14]), the pest or weed control at 250 g/ha stood at 0%. In series [4] (setting [15]), the pest or weed control at 250 g/ha was found to be 0%. The pest or weed control at 125 g/ha in series [5] (setting [16]) was found to be 90%. For the same compound, the pest or weed control at 500 g/ha in series [5] (setting [23]) stood at 90%.

Turning to `CSc1ccccc1NC(=O)[C@H]1C(=O)NC[C@@H]1c1ccc(F)c(C#N)c1` [Compound 1201], the pest or weed control at 250 g/ha turned out to be 0% in series [1] (setting [6]), 50% in series [2] (setting [7]), 0% in series [3] (setting [8]) and 0% in series [4] (setting [9]). The pest or weed control at 125 g/ha in series [5] (setting [10]) turned out to be 0%. Further, the pest or weed control at 500 g/ha in series [5] (setting [11]) was 70%.

For the compound `Cc1cc([C@H]2CNC(=O)[C@@H]2C(=O)Nc2ccc(F)cc2F)ccc1F` [Compound 718], the pest or weed control at 250 g/ha in series [1] (setting [12]) amounted to 40%; in series [2] (setting [13]) it was 100%; in series [3] (setting [14]), 0%; in series [4] (setting [15]) it was 0%. For the same compound, in series [5] (setting [16]), the pest or weed control at 125 g/ha stood at 90%. In addition, the pest or weed control at 500 g/ha in series [5] (setting [23]) is 90%.

For `CS(=O)(=O)c1ccccc1NC(=O)[C@H]1C(=O)NC[C@@H]1c1ccc2c(c1)CCO2` [Compound 1320], the pest or weed control at 250 g/ha in series [1] (setting [6]) was found to be 0%; in series [2] (setting [7]), 50%; in series [3] (setting [19]) it was 0%; in series [4] (setting [9]), 0%. For the same compound, the pest or weed control at 500 g/ha in series [5] (setting [11]) was found to be 60%. For the same compound, the pest or weed control at 125 g/ha in series [5] (setting [22]) came to 0%.

For the origin of these results see patent US12077503B2, “Substituted cyclic amides and their use as herbicides” (FMC CORPORATION, priority 2015, dated 2024).
